Reference: patent US12552790B2, “Positive modulators of the muscarinic acetylcholine receptor M4” (Vanderbilt University, priority 2023, dated 2026)

Key:
[1] = Dog fraction unbound in plasma; type: in vitro ADME; details: read-out: Dog Fu (plasma)
Description: (§1) Compounds may be tested in in vitro assays to investigate both metabolism and pharmacokinetics. These assays may be performed according to known methods as generally described in the following references: Conde-Ceide et al. ACS Med. Chem. Lett. 2015, 6, 716-720; Morris et al. J. Med. Chem. 2014, 57, 10192-10197; and Bubser et al. ACS Chem. Neurosci. 2014, 5, 920-942.

[2] = Human fraction unbound in plasma; type: in vitro ADME; details: read-out: Human Fu (plasma)
Description: as §1

[3] = Human intrinsic clearance; type: in vitro ADME
Description: as §1

[4] = Rat fraction unbound in plasma; type: in vitro ADME; details: read-out: Rat Fu (plasma)
Description: as §1

Rat intrinsic clearance = type: in vitro ADME
Description: as §1

P450 2C9 = P450 2C9 (Homo sapiens, UniProt P11712); assay: P450 2C9 inhibition; type: in vitro ADME
Sequence of P450 2C9 (P11712 whole entry): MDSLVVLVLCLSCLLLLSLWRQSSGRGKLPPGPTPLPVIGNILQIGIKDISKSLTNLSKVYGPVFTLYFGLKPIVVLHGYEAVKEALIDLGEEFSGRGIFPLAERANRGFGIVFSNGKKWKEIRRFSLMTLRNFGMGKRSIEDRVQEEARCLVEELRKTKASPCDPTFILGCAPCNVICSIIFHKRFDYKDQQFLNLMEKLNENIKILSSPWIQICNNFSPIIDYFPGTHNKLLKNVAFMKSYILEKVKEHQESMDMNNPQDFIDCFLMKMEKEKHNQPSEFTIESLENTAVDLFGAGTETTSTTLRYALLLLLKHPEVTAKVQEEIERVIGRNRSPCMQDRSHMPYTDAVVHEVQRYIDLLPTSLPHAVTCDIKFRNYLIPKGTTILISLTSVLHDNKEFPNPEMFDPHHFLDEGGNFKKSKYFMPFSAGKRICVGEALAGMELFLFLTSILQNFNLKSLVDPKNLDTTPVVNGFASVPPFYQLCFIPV
Description: as §1

[5] = Rat fraction unbound in brain; type: in vitro ADME; details: read-out: Rat Fu (brain)
Description: as §1

[6] = test system: amphetamine-induced hyperlocomotion in male Sprague-Dawley rats; assay: Amphetamine-induced hyperlocomotion in rats; type: in vivo; details: rat; for percent reversal of amphetamine-induced hyperlocomotion: amphetamine 0.75 mg/kg s.c.
Protocol: Drugs: d-Amphetamine hemisulfate was obtained from Sigma (St. Louis, MO). Salt-correction was used to determine the correct amount of the d-amphetamine hemisulfate form in milligrams to add to sterile water in order to yield a 0.75 mg/mL solution, which would be dosed at 1 mL/kg body weight of each animal. […] The solutions were formulated so that animals were injected with a volume equal to 10 mL/kg body weight for all compounds. The appropriate amount according to the dosage was mixed in 10% Tween 80 (Sigma) in sterile water. The mixtures were then vortexed and stored in a 39° C. sonication bath for 1 hour, until in a solution or microsuspension (depending on dose).
Animals: Male Sprague-Dawley rats weighing 239-300 grams and averaging 265 g (Harlan, Inc., Indianapolis, IN) were used. They were housed in the animal care facility certified by the American Association for the Accreditation of Laboratory Animal Care (AALAC) under a 12-hour light/dark cycle (lights on: 6 a.m.; lights off: 6 p.m.) and had free access to food and water. The animals used in this experiment were food-deprived the evening before experimentation for oral dosing of compound/vehicle. The experimental protocols performed during the light cycle were approved by the Institutional Animals Care and Use Committee of Vanderbilt University and conformed to the guidelines established by the National Research Council Guide for the Care and Use of Laboratory Animals.
Amphetamine-induced Hyperlocomotion: Male Harlan Sprague Dawley rats were habituated in Smart Open Field locomotor activity test chambers (Hamilton-Kinder, San Diego, CA) with 16×16 photo beams to automatically record locomotor activity. […] They were monitored for an additional 30 minutes and then injected subcutaneously with vehicle or 0.75 mg/kg amphetamine. Animals were then monitored for an additional 60 minutes, for a total of 120 minutes. Data were expressed as changes in ambulation defined as total number of beam breaks per 5 minute interval. Terminal brain and plasma samples were collected at the end of the study for pharmacokinetic analysis.
Data Analysis: Behavioral data were analyzed using a two-way ANOVA with main effects of treatment and time. Post hoc analysis was performed using a Dunnett's t-test with all treatment groups compared to the Vehicle/amphetamine group (VAMP) group using GraphPad Prism V.5.04 (GraphPad Software, San Diego, CA). Data were graphed using GraphPad Prism V.5.04 (GraphPad Software, San Diego, CA). A probability of p≤0.05 was taken as the level of statistical significance. In addition, the total number of beam breaks from the amphetamine administration (65 min) to the end of the study (120 min) was calculated and graphed. Percent Reversal was calculated as follows using Microsoft Excel: In each animal, total ambulation from t=65 to t=120 was summed. The mean of each sum was calculated in the VAMP group. Then, for each animal, Percent Reversal was calculated with the following formula: Percent Reversal=100−{[(total ambulation in each animal from t=65 to t=120)/(mean of each sum from t=65 to t=120 in VAMP group)]*100}. The mean Percent Reversal, as well as the standard error, was calculated for each dose group using GraphPad Prism V5.04.

P450 2D6 = P450 2D6 (Homo sapiens, UniProt P10635); assay: P450 2D6 inhibition; type: in vitro ADME
Sequence of P450 2D6 (P10635 whole entry): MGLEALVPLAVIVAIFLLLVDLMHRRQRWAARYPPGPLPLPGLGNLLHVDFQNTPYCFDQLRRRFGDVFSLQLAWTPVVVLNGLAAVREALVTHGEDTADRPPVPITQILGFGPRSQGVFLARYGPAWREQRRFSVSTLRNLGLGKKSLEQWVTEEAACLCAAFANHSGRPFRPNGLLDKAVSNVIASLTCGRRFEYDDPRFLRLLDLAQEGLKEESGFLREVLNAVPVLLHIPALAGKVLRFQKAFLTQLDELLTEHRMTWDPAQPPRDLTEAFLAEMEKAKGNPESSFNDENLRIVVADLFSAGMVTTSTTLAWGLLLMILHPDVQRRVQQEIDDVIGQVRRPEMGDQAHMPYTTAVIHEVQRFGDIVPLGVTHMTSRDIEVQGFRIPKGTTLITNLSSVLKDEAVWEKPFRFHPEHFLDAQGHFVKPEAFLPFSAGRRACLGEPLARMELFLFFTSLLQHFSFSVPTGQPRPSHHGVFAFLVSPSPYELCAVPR
Description: as §1

P450 3A4 = P450 3A4 (Homo sapiens, UniProt P08684); assay: P450 3A4 inhibition; type: in vitro ADME
Sequence of P450 3A4 (P08684 whole entry): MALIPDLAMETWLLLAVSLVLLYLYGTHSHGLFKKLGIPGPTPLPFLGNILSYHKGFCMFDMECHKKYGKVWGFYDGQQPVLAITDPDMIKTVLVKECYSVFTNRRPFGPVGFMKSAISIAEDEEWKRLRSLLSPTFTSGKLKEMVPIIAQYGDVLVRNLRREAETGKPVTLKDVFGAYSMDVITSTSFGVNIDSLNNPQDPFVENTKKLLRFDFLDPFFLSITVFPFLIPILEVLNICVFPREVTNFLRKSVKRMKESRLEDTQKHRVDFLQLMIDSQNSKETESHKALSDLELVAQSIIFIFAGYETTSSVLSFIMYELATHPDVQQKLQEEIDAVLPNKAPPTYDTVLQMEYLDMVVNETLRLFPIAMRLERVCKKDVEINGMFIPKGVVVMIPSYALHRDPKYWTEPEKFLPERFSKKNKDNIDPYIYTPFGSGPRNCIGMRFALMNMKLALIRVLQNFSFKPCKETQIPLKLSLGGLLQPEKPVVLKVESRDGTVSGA
Description: as §1

Dog intrinsic clearance = type: in vitro ADME
Description: as §1

P450 1A2 = biological target: T1, P450 1A2 (Homo sapiens, UniProt P05177); assay: P450 1A2 inhibition; type: in vitro ADME
T1 sequence (P05177 1-516): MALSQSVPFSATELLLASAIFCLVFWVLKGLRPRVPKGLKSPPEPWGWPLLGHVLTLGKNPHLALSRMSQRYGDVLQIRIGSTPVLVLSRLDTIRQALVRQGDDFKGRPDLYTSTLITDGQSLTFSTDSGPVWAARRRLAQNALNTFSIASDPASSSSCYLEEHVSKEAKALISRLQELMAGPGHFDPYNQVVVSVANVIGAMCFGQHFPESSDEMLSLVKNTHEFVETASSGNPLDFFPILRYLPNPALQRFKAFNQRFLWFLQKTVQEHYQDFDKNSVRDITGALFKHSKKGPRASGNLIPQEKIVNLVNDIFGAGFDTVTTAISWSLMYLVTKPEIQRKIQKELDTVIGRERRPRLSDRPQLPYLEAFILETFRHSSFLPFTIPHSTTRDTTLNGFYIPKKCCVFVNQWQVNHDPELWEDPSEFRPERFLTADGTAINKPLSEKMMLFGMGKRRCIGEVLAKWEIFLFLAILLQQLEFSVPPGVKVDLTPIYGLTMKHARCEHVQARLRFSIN
Description: as §1

[7] = In vivo pharmacokinetic study in dog
[8] = In vivo pharmacokinetic study in rat

**Q.** With `[2H]C1([2H])Oc2ccc(OC3CCN(c4nc5c(cc4C)C(=O)NC5)CC3)cc2OC1([2H])[2H]` [Compound 3, 2-(4-((2,3-dihydrobenzo[b][1,4]dioxin-6-yl-2,2,3,3-d4)oxy)piperidin-1-yl)-3-methyl-6,7-dihydro-5H-pyrrolo[3,4-b]pyridin-5-one] as the molecule, how does the fraction unbound [1] read?
**A.** 0.042

**Q.** And the fraction unbound [2]?
**A.** 0.022

**Q.** What about the CLint scaled [3] of the same molecule?
**A.** 15 mL/min/kg

**Q.** And the fraction unbound [4]?
**A.** 0.026

**Q.** What about the CLint scaled (Rat intrinsic clearance) of the same molecule?
**A.** 90 mL/min/kg

**Q.** And the IC50 (P450 2C9)?
**A.** > 100 µM

**Q.** What about the fraction unbound [5] of the same molecule?
**A.** 0.015

**Q.** What about the “percent reversal of amphetamine-induced hyperlocomotion” value (“percent reversal” for short) ([6]; 1 mg/kg oral gavage) of the same molecule?
**A.** 27.5%

**Q.** And the “percent reversal” value ([6]; 1.8 mg/kg oral gavage)?
**A.** 40.1%

**Q.** What about the “percent reversal” value ([6]; 3 mg/kg oral gavage) of the same molecule?
**A.** 59.1%

**Q.** What about the “percent reversal” value ([6]; 5.6 mg/kg oral gavage) of the same molecule?
**A.** 60.9%

**Q.** And the “reversal of amphetamine-induced hyperlocomotion (in words)” value ([6]; systemic administration)?
**A.** significant and sustained reversal

**Q.** And the IC50 (P450 2D6)?
**A.** > 100 µM

**Q.** And the IC50 (P450 3A4)?
**A.** > 100 µM

**Q.** What about the CLint scaled (Dog intrinsic clearance) of the same molecule?
**A.** 19 mL/min/kg

**Q.** And the IC50 (P450 1A2)?
**A.** > 100 µM

**Q.** What about the “Dog oral F” value ([7]; 3 mg/kg oral) of the same molecule?
**A.** 89%

**Q.** And the clearance ([7]; plasma, read-out: Dog CLp)?
**A.** 1.8 mL/min/kg

**Q.** What about the half-life ([7]; plasma, read-out: Dog Elim. t1/2 (converted)) of the same molecule?
**A.** 7.6 h

**Q.** What about the Vd ([7]; plasma, read-out: Dog Vss) of the same molecule?
**A.** 1 L/kg

**Q.** What about the “Rat oral F” value ([8]; 3 mg/kg oral) of the same molecule?
**A.** >100%

**Q.** What about the Kp ([8]; brain, read-out: Rat brain: plasma Kp) of the same molecule?
**A.** 1.2

**Q.** And the Kp uu ([8]; brain, unbound, read-out: Rat brain: plasma Kp, uu)?
**A.** 0.7

**Q.** What about the clearance ([8]; plasma, read-out: Rat CLp) of the same molecule?
**A.** 16.9 mL/min/kg

**Q.** What about the half-life ([8]; plasma, read-out: Rat Elim. t1/2 (converted)) of the same molecule?
**A.** 1.4 h

**Q.** What about the Vd ([8]; plasma, read-out: Rat Vss) of the same molecule?
**A.** 1.6 L/kg
